Assay results reported in patent publication US5780434A, “Composition for oral administration of peptides” (Ferring B.V., priority 1993, dated 1998).

What was measured:
[1] = Degradation of peptide in human gastro-intestinal juice (HPLC); details: intestinal juice from the ileum, pH 6.5, increasing amounts of aprotinin
Protocol: (§1) Human gastro-intestinal juice was obtained from healthy male volunteers who had been fasting for 8 h. A tube was introduced intranasally after local anaesthesia with xylocaine, and gastric juice was collected. Thereafter one standardized meal was given 1 h before sampling of duodenal and distal jejunum juice and another the next morning before the collection of distal ileal juice. After centrifugation the gastric and intestinal juices were frozen in aliquots of 1 ml and stored at -20° C.
(§2) The peptide or peptide analog (10 μl of 10 mM peptide in 0.9% aqueous NaCl) was added to 190 μl of undiluted juice at 37° C. Aliquots of 25 μl were withdrawn at intervals and mixed with 100 μl acetone to stop the reaction. After centrifugation for 10 min at 10,000 g, 10 μl of the supernatant was analyzed by reversed phase HPLC. The effects of increasing amounts of aprotinin were examined under the above conditions in intestinal juice from the ileum.
(§3) Analysis was carried out in a Varian 5000 HPLC analyzer equipped with a UV-detector (220 nm). Column Bondapak TM C18 (3.9×300 mm), eluant MeOH/0.025M NH4 Ac (isocratic conditions), flow rate 1 ml/min.

[2] = in the presence of aprotinin, rat; cited from earlier work
[3] = pH 6.5
Protocol: as §1, §2, §3

[4] = human, in vivo
Protocol: Experiments with healthy volunteers. After having fasted for 8 hours six healthy male volunteers were intubated (cf. example 1) with quadruple lumen flexible PVC tubes. The open end of the tube was positioned in the duodenum close to the pylorus; correct positioning was verified fluoroscopically. DDAVP acetate (0.4 mg in 2 ml 0.9% aqueous sodium chloride) was applied at the start and the tube was rinsed with 2 ml 0.9% aqueous sodium chloride. Perfusion with aprotinin (ANTAGOSAN™, Hoechst, Germany; aqueous solution, 10,000 kallikrein inactivator units/ml) started immediately after application of DDAVP and continued for 4 h at a rate of 5 ml/min. A standard breakfast was given 5-10 min after application of DDAVP, and a standardized meal 4 h later. From 2 h after start onwards the volunteers were given 100 ml/h water orally. Each volunteer participated in three sessions.
Bioavailability was determined for each subject in a separate session by intravenous bolus injection of DDAVP (4 μg); blood samples were drawn before and up to 8 h after drug application and analyzed for DDAVP as described above.

In the case of aprotinin, the “Inhibition of DDAVP degradation by aprotinin” value [1] was “concentration-dependent inhibition”.

For “(1-deamino-4-valine)-8-D-arginine-vasopressin”, the “Urine retention after gastric administration of an aqueous solution” value [2] is listed as “moderately enhanced”.

In the case of `NC(=O)CC[C@@H]1NC(=O)[C@H](Cc2ccccc2)NC(=O)[C@H](Cc2ccc(O)cc2)NC(=O)CCSSC[C@@H](C(=O)N2CCC[C@H]2C(=O)N[C@H](CCCN=C(N)N)C(=O)NCC(N)=O)NC(=O)[C@H](CC(N)=O)NC1=O` [DDAVP, desmopressin], the “DDAVP degraded to (after 35 min)” value [3] was “about 50%”, the “Increase of DDAVP absorption in presence of aprotinin” value [4] was “about five-fold” and the “DDAVP absorption (bioavailability)” value ([4]; male, 0.4 mg) was “about 0.1 % by weight”.
